Consider one molecule from publication PMC9032233, “2-{5-[(Z,2Z)-2-Chloro-3-(4-nitrophenyl)-2-propenylidene]-4-oxo-2-thioxothiazolidin-3-yl}-3-methylbutanoic Acid as a Potential Anti-Breast Cancer Molecule” (International Journal of Molecular Sciences, 2022).

As a reminder, the IC50 is the midpoint of a concentration-inhibition curve. Read a high IC50 as weaker potency.

Values joined by “and” are separate entries in the source; they are usually repeats but may differ in a detail not shown here. Equal values may be shown once.

The subject of data set [1] is Salmonella Typhimurium TA100. Conditions: Ames MPF. As for the experimental part:
The mutagenicity was evaluated using Ames microplate fluctuation protocol (MPF) from Xenometrix (Allschwil, Switzerland). The applied Salmonella Typhimurium TA100 strain was enabled to detect base-pair substitution (hisG46 mutation, for which target is GGG). Les-3331 was tested independently in two final concentrations, 1 and 5 µM, in triplicate. The reference mutagen 4-NQO was tested at 26.3 µM. The occurrence of revertants was visualized using pH indicator dye, which was present in the bacterial medium. The color changes from violet to yellow were confirmed using measurements of absorbance with a microplate reader, EnSpire, at 420 nm. According to the protocols and data sheets provided by Xenometrix, the medium control baseline (MCB) was calculated first, which refers to the number of revertants observed in the control (growth medium + 1% DMSO) plus standard deviation. Next, the Binomial B-value was calculated for tested compounds which indicates the probability that spontaneous mutations occurred. The fold increase ≥2 over the MCB and/or Binomial B-value ≥ 0.99 are considered as the mutagen alert.

Data set [2] addresses T1, CYP3A4 (Homo sapiens, UniProt P08684).
T1 construct: purchased Promega (Madison, WI, USA)
In words: Luminescent CYP3A4 P450-Glo assay. It counts as in vitro ADME. Conditions: at 10 and 25 µM. As for the experimental part: For investigation of potential drug-drug interactions, the luminescent CYP3A4 and CYP2D6 P450-Glo assays obtained from Promega® (Madison, WI, USA) were used. Les-3331 was tested in triplicate at the final concentrations from 0.01 to 25 µM according to the protocols provided by Promega®. The reference inhibitors were tested at 1 µM. The luminescent signal was measured using a microplate reader, EnSpire PerkinElmer (Waltham, MA, USA).

Data set [3] has as its system human skin fibroblasts. Nature of the data set: MTT cell viability assay, skin fibroblasts. In kind it is cell-based. To be noted: Skin fibroblast, 24 h incubation. How it is done:
Cell culture MCF-7, MDA-MB-231 human breast cancer cells, and fibroblasts skin cells were purchased from the ATCC—American Type Culture Collection. All cell lines were maintained in DMEM (Corning, Kennebunk, ME, USA). The medium was supplemented with 10% fetal bovine serum—FBS (Eurx, Gdansk, Poland) and 1% antimicrobial substances: penicillin–streptomycin (Corning, Kennebunk, ME, USA). The incubator asserted appropriate growth conditions required for these cell lines: 5% of CO2, at 37 °C, with the humidity between 90–95%. Cells were seeded in 100 mm round dishes. An amount of 0.05% trypsin containing 0.02% EDTA (Corning, Kennebunk, ME, USA) and phosphate-buffered saline (PBS) without calcium and magnesium (Corning, Kennebunk, ME, USA) was used to detach cells from a plate once 80–90% cell confluence was achieved. In the next step, cells were reseeded in six-well plates (density—5 × 10^5 of cells per well) in 1 mL of DMEM after a 24 h incubation used in the presented tests.
To examine the effect of Les-3331 on cell viability, the MTT assay was performed. […] The absorbance was measured using Spectrophotometer UV-VIS Helios Gamma (Unicam/ThermoFisher Scientific Inc., Waltham, MA, USA) at a wavelength of 570 nm. The obtained absorbance in untreated control cells was taken as 100%, while the survival of the cells incubated with tested compounds presented as a percentage of the control value.
A general note: Tetrazolium dyes change colour on reduction, which living cells bring about.

Data set [4] can be described thus: Metabolic stability with rat liver microsomes (RLMs). In kind it is in vitro ADME. As for the experimental part:
The metabolic stability was estimated using rat liver microsomes (RLMs) obtained from Sigma-Aldrich (St. Louis, MO, USA). Les-3331 was incubated in the presence of RLMs and NADPH Regeneration System (Promega, Madison, WI, USA) in Tris-HCl buffer (pH 7.4) for 120 min. Cold ethanol was added next to stop the reaction. The reaction mixture was centrifuged. The aforementioned UPLC-MS device was used to analyze the supernatant. MS/MS ion fragment analyses were performed for Les-3331 and the main metabolite. The in silico prediction of possible Les-3331 metabolic pathways was performed by MetaSite 8.0.1. Software (Molecular Discovery Ltd., Hertfordshire, UK).

T1 sequence (P08684 whole entry): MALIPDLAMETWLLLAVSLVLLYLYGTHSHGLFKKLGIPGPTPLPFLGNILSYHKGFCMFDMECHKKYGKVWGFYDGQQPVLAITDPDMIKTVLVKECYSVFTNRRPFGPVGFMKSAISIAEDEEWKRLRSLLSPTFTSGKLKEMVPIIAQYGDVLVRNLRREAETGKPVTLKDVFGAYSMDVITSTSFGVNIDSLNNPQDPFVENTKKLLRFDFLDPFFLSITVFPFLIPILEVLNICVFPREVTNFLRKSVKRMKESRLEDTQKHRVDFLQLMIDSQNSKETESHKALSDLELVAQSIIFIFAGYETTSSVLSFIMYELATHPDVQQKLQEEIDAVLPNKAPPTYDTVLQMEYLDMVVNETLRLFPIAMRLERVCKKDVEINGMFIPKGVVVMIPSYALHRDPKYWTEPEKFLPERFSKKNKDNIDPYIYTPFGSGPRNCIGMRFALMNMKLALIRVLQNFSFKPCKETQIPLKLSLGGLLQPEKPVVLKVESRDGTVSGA

Turning to `CC(C)C(C(=O)O)N1C(=O)/C(=C/C(Cl)=C/c2ccc([N+](=O)[O-])cc2)SC1=S` (stereo not drawn) [Les-3331, 2-{5-[(Z,2Z)-2-chloro-3-(4-nitrophenyl)-2-propenylidene]-4-oxo-2-thioxothiazolidin-3-yl}-3-methylbutanoic acid], in data set [1] (TA100, 1 µM), the mutagenicity result is given as “not mutagenic”. Moreover, the “fold increase in MCB” value in data set [1] (TA100, 5 µM) is reported as “twofold increase in MCB was not reached”. In addition, the “effect on CYP3A4 activity” value in data set [2] was “activated”. The molecule also yielded an IC50 in data set [3] of 28.5 µM. Also, in data set [4] (RLMs, 120 min incubation), the “% of the Remaining Substrate” value is 52% and 52.03%. For the same molecule, the “Proposed Metabolic Pathway” value in data set [4] (main metabolite M1, RLMs 120 min) was “decomposition”; in data set [4] (metabolite M2, RLMs 120 min) it was “decomposition and hydroxylation”; in data set [4] (metabolite M3, RLMs 120 min) it was “decomposition and dehydrogenation”; in data set [4] (metabolite M4, RLMs 120 min), “decomposition”.
